Counter-ions that a name gives are not always drawn.
Target: T1, abc isoform of human TMEM16A channel expressed in CHO cells (Homo sapiens, UniProt Q5XXA6, DEL476-501)
T1 construct: expressed in transfected cells; host or cells: CHO cells, doxycycline-inducible expression under Blasticidin/Zeocin selection
T1 sequence (Q5XXA6 with tags, fused parts or gaps isoform Q5XXA6-5 DEL539-564): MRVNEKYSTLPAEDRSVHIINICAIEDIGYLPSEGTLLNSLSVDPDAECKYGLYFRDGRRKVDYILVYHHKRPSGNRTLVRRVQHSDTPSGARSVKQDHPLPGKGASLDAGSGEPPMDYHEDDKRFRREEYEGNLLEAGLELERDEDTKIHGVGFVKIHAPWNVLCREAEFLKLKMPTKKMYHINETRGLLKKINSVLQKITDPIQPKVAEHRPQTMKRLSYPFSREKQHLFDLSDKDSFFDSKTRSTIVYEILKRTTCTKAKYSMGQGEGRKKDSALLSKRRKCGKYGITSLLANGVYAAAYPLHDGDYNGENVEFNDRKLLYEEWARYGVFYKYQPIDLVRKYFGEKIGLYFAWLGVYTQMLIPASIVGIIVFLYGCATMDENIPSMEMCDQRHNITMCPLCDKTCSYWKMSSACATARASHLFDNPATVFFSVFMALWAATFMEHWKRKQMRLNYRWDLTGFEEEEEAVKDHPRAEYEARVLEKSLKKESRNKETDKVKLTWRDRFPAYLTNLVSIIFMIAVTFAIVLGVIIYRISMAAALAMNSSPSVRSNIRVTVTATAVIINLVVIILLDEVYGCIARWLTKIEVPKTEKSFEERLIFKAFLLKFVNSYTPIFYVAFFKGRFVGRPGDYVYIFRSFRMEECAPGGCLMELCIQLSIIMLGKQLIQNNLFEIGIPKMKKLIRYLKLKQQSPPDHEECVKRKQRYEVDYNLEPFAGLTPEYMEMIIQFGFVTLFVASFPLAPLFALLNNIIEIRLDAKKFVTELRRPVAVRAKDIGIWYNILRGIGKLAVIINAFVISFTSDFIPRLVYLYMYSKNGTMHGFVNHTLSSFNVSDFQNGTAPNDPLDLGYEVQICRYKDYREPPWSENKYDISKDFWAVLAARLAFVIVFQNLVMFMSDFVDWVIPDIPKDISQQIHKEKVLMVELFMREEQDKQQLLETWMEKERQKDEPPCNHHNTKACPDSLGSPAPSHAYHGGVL
Test: Automated patch clamping (QPatch) assay to measure TMEM16A activity in whole-cell
Assay type: cell-based
Details: for EC50: CHO cells expressing human TMEM16A (abc), whole-cell automated patch clamp, Hill fit, read-out: TMEM16A QPATCH assay EC50 V3 EC50; for Emax: CHO, read-out: TMEM16A QPATCH assay EC50 V3 Assay Window (% TMEM16A max activation); for Emax / TMEM16A QPATCH assay EC50 V3 Assay Window (% TMEM16A max activation): maximum current at highest dose relative to reference potentiator at maximal concentration (upper limit) and vehicle (lower limit)
Method in brief: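 Whole-cell currents were recorded by planar automated patch clamp from induced CHO cells (doxycycline 1 μg/mL, 18-24 h), using a −70 mV hold, +70 mV step and −90 to +70 mV ramp. Values: Hill-fitted EC50, and activation scaled between vehicle current and reference-potentiator maximum; 0.3% DMSO final.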

Row | Compound | EC50 | Emax | TMEM16A QPATCH assay EC50 V3 Assay Window (% TMEM16A max activation)
1 | CCC(CC)NC(=O)c1cnc(-c2cccc(-c3nc(C(=O)NC(CC)CC)n(CCOC)n3)c2)o1 [Example 15.1, 2-(3-(1-(2-Methoxyethyl)-5-(Pentan-3-Ylcarbamoyl)-1H-1,2,4-Triazol-3-Yl)Phenyl)-N-(Pentan-3-Yl)Oxazole-5-Carboxamide] | 240 nM | 155% | –
2 | CCC(CC)NC(=O)c1cnc(-c2cccc(-c3cc(C(=O)NC(CC)CC)n(CCO)n3)c2)o1 [Example 9.7, 2-(3-(1-(2-Hydroxyethyl)-5-(Pentan-3-Ylcarbamoyl)-1H-Pyrazol-3-Yl)Phenyl)-N-(Pentan-3-Yl)Oxazole-5-Carboxamide] | 90 nM | 85% | –
3 | CCOC(=O)CCCn1nc(-c2cccc(-c3ncc(C(=O)NC(CC)CC)o3)c2)nc1C(=O)NC(CC)CC [Example 15.8, Ethyl 4-(5-(Pentan-3-Ylcarbamoyl)-3-(3-(5-(Pentan-3-Ylcarbamoyl)Oxazol-2-Yl)Phenyl)-1H-1,2,4-Triazol-1-Yl)Butanoate] | 90 nM | 95% | –
4 | CCOC(=O)[C@@H](NC(=O)c1cnc(-c2cccc(-c3nnc(C(=O)N[C@@H](C)C4CC4)[nH]3)c2)o1)C(C)C [Example 12.2, (S)-Ethyl 2-(2-(3-(5-(((S)-1-Cyclopropylethyl)Carbamoyl)-4H-1,2,4-Triazol-3-Yl)Phenyl)Oxazole-5-Carboxamido)-3-Methylbutanoate] | 50 nM | 112% | –
5 | CCC(CC)NC(=O)c1cnc(-c2cccc(-c3nnc(C(=O)NC(CC)CC)n3CCOC)c2)o1 [Example 15.5, 2-(3-(4-(2-Methoxyethyl)-5-(Pentan-3-Ylcarbamoyl)-4H-1,2,4-Triazol-3-Yl)Phenyl)-N-(Pentan-3-Yl)Oxazole-5-Carboxamide] | 440 nM | 83% | –
6 | C[C@H](NC(=O)c1nnc(-c2cccc(-c3ncc(C(=O)N[C@H](C)C4CC4)o3)c2)[nH]1)C1CC1 [Example 12.1, N-((R)-1-Cyclopropylethyl)-2-(3-(5-(((S)-1-Cyclopropylethyl)Carbamoyl)-4H-1,2,4-Triazol-3-Yl)Phenyl)Oxazole-5-Carboxamide] | 270 nM | 80% | –
7 | CCC(CC)NC(=O)c1cnc(-c2cccc(-c3cc(C(=O)N[C@@H](COC(C)(C)C)C(=O)OC(C)(C)C)n[nH]3)c2)o1 [Example 3.61, (S)-Tert-Butyl 3-(Tert-Butoxy)-2-(5-(3-(5-(Pentan-3-Ylcarbamoyl)Oxazol-2-Yl)Phenyl)-1 H-Pyrazole-3-Carboxamido)Propanoate Trifluoroacetate] | 130 nM | 123% | –
8 | CCC(CC)NC(=O)c1cc(-c2cccc(-c3ncc(C(=O)N[C@@H](CC(C)C)C(=O)OC)o3)c2)[nH]n1 [Example 1.26, (S)-Methyl 4-Methyl-2-(2-(3-(3-(Pentan-3-Ylcarbamoyl)-1H-Pyrazol-5-yl)Phenyl)Oxazole-5-Carboxamido)Pentanoate] | 640 nM | 91% | –
9 | CCC(CC)NC(=O)c1cc(-c2cccc(-c3ncc(C(=O)N[C@@H](COC(C)(C)C)C(=O)OC(C)(C)C)o3)c2)[nH]n1 [Example 1.50, (S)-Tert-Butyl 3-(Tert-Butoxy)-2-(2-(3-(3-(Pentan-3-Ylcarbamoyl)-1H-Pyrazol-5-Yl)Phenyl)Oxazole-5-Carboxamido)Propanoate Trifluoroacetate] | 450 nM | 115% | –
10 | CCC(CC)NC(=O)c1cc(-c2cccc(-c3ncc(C(=O)Nc4cccc(C#N)c4)o3)c2)[nH]n1 [Example 1.27, N-(3-Cyanophenyl)-2-(3-(3-(Pentan-3-Ylcarbamoyl)-1 H-Pyrazol-5-yl)Phenyl)Oxazole-5-Carboxamide] | 920 nM | 86% | –

Further molecules by falling EC50, results first:

Row | EC50 | Emax | TMEM16A QPATCH assay EC50 V3 Assay Window (% TMEM16A max activation) | Compound
11 | 750 nM | 90% | – | CCC(CC)NC(=O)c1cnc(-c2cccc(-c3cc(C(=O)N4CCC(C(=O)OC)C4)n[nH]3)c2)o1 (stereo not drawn) [Example 3.30, Methyl 1-(5-(3-(5-(Pentan-3-Ylcarbamoyl)Oxazol-2-Yl)Phenyl)-1H-Pyrazole-3-Carbonyl)Pyrrolidine-3-Carboxylate]
12 | 550 nM | – | 73% | CCC(CC)NC(=O)c1cnc(-c2cccc(-c3cc(C(=O)NC(C4CC4)C4CCCO4)n[nH]3)c2)o1 (single isomer, unassigned) [Example 3.4 (iii), 2-(3-(3-((Cyclopropyl(Tetrahydrofuran-2-Yl)Methyl)Carbamoyl)-1H-Pyrazol-5-Yl)Phenyl)-N-(Pentan-3-Yl)Oxazole-5-Carboxamide]
13 | 470 nM | 121% | – | COC(=O)[C@@H](NC(=O)c1nc(-c2cccc(-c3ncc(C(=O)NC(C4CC4)C4CC4)o3)c2)n[nH]1)C(C)C [Example 13.7, (S)-Methyl 2-(3-(3-(5-((Dicyclopropylmethyl)Carbamoyl)Oxazol-2-Yl)Phenyl)-1H-1,2,4-Triazole-5-Carboxamido)-3-Methylbutanoate]
14 | 420 nM | 85% | – | C[C@H](NC(=O)c1nnc(-c2cccc(-c3ncc(C(=O)NC45CC6CC(CC(C6)C4)C5)o3)c2)[nH]1)C1CC1 [Example 12.16, (S)-N-(Adamantan-1-Yl)-2-(3-(5-((1-Cyclopropylethyl)Carbamoyl)-4H-1,2,4-Triazol-3-Yl)Phenyl)Oxazole-5-Carboxamide]
15 | 320 nM | 125% | – | CCC(CC)NC(=O)c1cnc(-c2cccc(-c3cc(C(=O)N[C@H](C)C4CC4)n(CCO)n3)c2)o1 [Example 5.1, (R)-2-(3-(5-((1-Cyclopropylethyl)Carbamoyl)-1-(2-Hydroxyethyl)-1H-Pyrazol-3-Yl)Phenyl)-N-(Pentan-3-Yl)Oxazole-5-Carboxamide]
16 | 290 nM | 99% | – | COC(=O)[C@H](CC(C)C)NC(=O)c1cnc(-c2cccc(-c3nnc(C(=O)N[C@@H](C)C4CC4)[nH]3)c2)o1 [Example 12.13]
17 | 240 nM | 104% | – | CCC(CC)NC(=O)c1cnc(-c2cccc(-c3cc(C(=O)N[C@@H](C)C4CC4)n(CC(C)O)n3)c2)o1 (stereo partly drawn) [Example 9.5, 2-(3-(5-(((S)-1-Cyclopropylethyl)Carbamoyl)-1-(2-Hydroxypropyl)-1H-Pyrazol-3-Yl)Phenyl)-N-(Pentan-3-Yl)Oxazole-5-Carboxamide]
18 | 140 nM | 87% | – | CCOC(=O)[C@@H](NC(=O)c1cnc(-c2cccc(-c3cc(C(=O)N[C@@H](C(=O)OC)C(C)C)[nH]n3)c2)o1)C(C)C [Example 2.0, (S)-Ethyl 2-(2-(3-(5-(((R)-1-Methoxy-3-Methyl-1-Oxobutan-2-Yl)Carbamoyl)-1 H-Pyrazol-3-Yl)Phenyl)Oxazole-5-Carboxamido)-3-Methylbutanoate]
19 | 130 nM | – | 115% | C[C@H](NC(=O)c1cc(-c2cccc(-c3ncc(C(=O)NC(C4CC4)C4CC4)o3)c2)nn1CC(O)C(F)(F)F)C1CC1 (single isomer, unassigned) [Example 9.2 (i)]
20 | 30 nM | 95% | – | CCOC(=O)[C@@H](NC(=O)c1cc(-c2cccc(-c3ncc(C(=O)NC(CC)CC)o3)c2)[nH]n1)C(C)C [Example 3.52, (S)-Ethyl 3-Methyl-2-(5-(3-(5-(Pentan-3-Ylcarbamoyl)Oxazol-2-Yl)Phenyl)-1 H-Pyrazole-3-Carboxamido)Butanoate]
21 | 10 nM | 135% | – | COC(=O)[C@@H](NC(=O)c1cnc(-c2cccc(-c3cc(C(=O)N[C@@H](C)C4CC4)n(CC(O)C(F)(F)F)n3)c2)o1)C(C)C (single isomer, unassigned) [8.1 (i)]

— US20220306617A1, “SUBSTITUTED 1,3-PHENYL HETEROARYL DERIVATIVES AND THEIR USE IN THE TREATMENT OF DISEASE” (NOVARTIS AG, priority 2019, published 2022)
